Measurements as given in patent publication US5149834A, “4-Hydroxytetrahydropyran-2-one derivatives” (Fujirebio Inc., priority 1990, dated 1992).

Columns and labels:
HMG Co-A Reductase = target: T1, HMG Co-A Reductase (Rattus norvegicus, UniProt P51639); assay: Measurement of inhibiting effect on HMG Co-A reductase (inhibiting ratio of biosynthesis of cholesterol); type: biochemical; settings: 0.1 μM samples, compactin = 100
T1 construct: from tissue
T1 sequence (P51639 1-887): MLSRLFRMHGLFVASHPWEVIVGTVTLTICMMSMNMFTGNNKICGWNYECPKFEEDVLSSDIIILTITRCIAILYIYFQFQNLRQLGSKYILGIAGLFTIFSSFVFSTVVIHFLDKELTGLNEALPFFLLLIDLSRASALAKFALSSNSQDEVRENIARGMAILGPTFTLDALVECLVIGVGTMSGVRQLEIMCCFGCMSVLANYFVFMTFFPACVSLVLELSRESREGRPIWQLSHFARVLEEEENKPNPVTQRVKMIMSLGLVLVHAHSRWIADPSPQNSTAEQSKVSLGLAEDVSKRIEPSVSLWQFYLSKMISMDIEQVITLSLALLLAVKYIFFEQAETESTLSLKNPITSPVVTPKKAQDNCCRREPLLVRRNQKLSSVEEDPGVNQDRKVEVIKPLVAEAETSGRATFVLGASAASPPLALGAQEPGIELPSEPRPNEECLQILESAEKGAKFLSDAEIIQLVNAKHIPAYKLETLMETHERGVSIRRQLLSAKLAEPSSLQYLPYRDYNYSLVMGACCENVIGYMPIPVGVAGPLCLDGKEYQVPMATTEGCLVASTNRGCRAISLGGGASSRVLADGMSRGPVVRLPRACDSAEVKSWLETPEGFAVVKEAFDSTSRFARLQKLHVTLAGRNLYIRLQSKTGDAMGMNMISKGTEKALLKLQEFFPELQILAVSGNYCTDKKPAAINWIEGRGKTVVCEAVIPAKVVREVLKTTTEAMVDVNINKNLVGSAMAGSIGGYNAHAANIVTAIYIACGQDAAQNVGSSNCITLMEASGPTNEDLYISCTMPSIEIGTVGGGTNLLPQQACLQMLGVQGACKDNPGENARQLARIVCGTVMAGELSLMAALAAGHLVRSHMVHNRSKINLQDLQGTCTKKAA
Protocol: The inhibiting effect on HMG Co-A Reductase of representative examples of the 4-hydroxytetrahydropyran-2-one derivatives prepared in the above-discussed examples was measured in accordance with the method described in Journal of Biological Chemistry (J. Biol. Chem.) Vol. 234, page 2835 (1959) in order to investigate the inhibiting activity of each derivative in terms of the inhibiting ratio of the biosynthesis of cholesterol.

rat brain homogenate = assay: Anti-oxidation function: inhibition of automatic ABARTS reproduction of rat brain homogenate; type: biochemical; settings: vitamin E as reference = 100
Protocol: The anti-oxidation function of some examples of the 4-hydroxytetrahydropyran-2-one derivatives prepared in the above-discussedexamples was measured as a reference of the inhibition function of the automatic ABARTS reproduction of the rat brain homogenate in accordance with the method described in Nippon Yakuri-shi 87, 427-434 (1986) by K. Shintomi et al.

In the case of `Cc1c(O)c(C)c2c(c1CC[C@H]1C[C@H](O)CC(=O)O1)OC(C)(C)C2` (racemic) [Compound No. 14, trans-(±)-6-(2,3-dihydro-5-hydroxy-2,2,4,6-tetramethylbenzo[b]furan-7-yl)ethyl-4-hydroxytetrahydropyran-2-one], the “Inhibiting Activity (Inhibiting Ratio of Biosynthesis of Cholesterol), relative value when the value of compactin is 100” value (HMG Co-A Reductase) is reported as 11 and the “Anti-oxidation Function” value (rat brain homogenate) is reported as 106.

`CC(=O)Oc1c(C)c(CC[C@H]2C[C@H](O)CC(=O)O2)c2c(c1C)CC(C)(C)O2` (racemic) [Compound No. 33, trans-(±)-6-(5-acetoxy-2,3-dihydro-2,2,4,6-tetramethylbenzo[b]furan-7-yl)ethyl-4-hydroxytetrahydropyran-2-one] was tested, and the “Inhibiting Activity (Inhibiting Ratio of Biosynthesis of Cholesterol), relative value when the value of compactin is 100” value (HMG Co-A Reductase) was 21.

With `Cc1c2c(c(CC[C@H]3C[C@H](O)CC(=O)O3)c(C(C)C)c1OCc1ccccc1)OC(C)(C)C2` (racemic) [Compound No. 81, trans-(±)-6-[5-benzyloxy-2,3-dihydro-6-(2-propyl)-2,2,4-trimethylbenzo[b]furan-7-yl]ethyl-4-hydroxytetrahydropyran-2-one] the “Inhibiting Activity (Inhibiting Ratio of Biosynthesis of Cholesterol), relative value when the value of compactin is 100” value (HMG Co-A Reductase) was 427.

For `Cc1c2c(c(CC[C@H]3C[C@H](O)CC(=O)O3)c(C(C)(C)C)c1OCc1ccccc1)OC(C)(C)C2` (racemic) [Compound No. 112, trans-(±)-6-[5-benzyloxy-6-(t-butyl)-2,3-dihydro-2,2,4-trimethylbenzo[b]furan-7-yl]ethyl-4-hydroxytetrahydropyran-2-one], the “Inhibiting Activity (Inhibiting Ratio of Biosynthesis of Cholesterol), relative value when the value of compactin is 100” value (HMG Co-A Reductase) was 190.

With `CC1(C)Cc2cc(OCc3ccccc3)c(C(C)(C)C)c(CC[C@H]3C[C@H](O)CC(=O)O3)c2O1` (racemic) [Compound No. 124, trans-(±)-6-[5-benzyloxy-6-(t-butyl)-2,3-dihydro-2,2-dimethylbenzo[b]furan-7-yl]ethyl-4-hydroxytetrahydropyran-2-one] the “Inhibiting Activity (Inhibiting Ratio of Biosynthesis of Cholesterol), relative value when the value of compactin is 100” value (HMG Co-A Reductase) was 300.

In the case of `CC(C)c1c(OCc2ccccc2)cc2c(c1CC[C@H]1C[C@H](O)CC(=O)O1)OC(C)(C)C2` (racemic) [Compound No. 154, trans-(±)-6-[5-benzyloxy-2,3-dihydro-2,2-dimethyl-6-(2-propyl)benzo[b]furan-7-yl]ethyl-4-hydroxytetrahydropyran-2-one], the “Inhibiting Activity (Inhibiting Ratio of Biosynthesis of Cholesterol), relative value when the value of compactin is 100” value (HMG Co-A Reductase) is reported as 250.

With `Cc1c(CC[C@@H]2C[C@@H](O)CC(=O)O2)c2c(c(C)c1OCc1ccccc1)CC(C)(C)O2` (relative stereo) [Compound No. 13, trans-(±)-6-(5-benzyloxy-2,3-dihydro-2,2,4,6-tetramethylbenzo[b]furan-7-ethyl-4-hydroxytetrahydropyran-2-one] the “Inhibiting Activity (Inhibiting Ratio of Biosynthesis of Cholesterol), relative value when the value of compactin is 100” value (HMG Co-A Reductase) was 50.

For `Cc1c(CC[C@@H]2C[C@@H](O)CC(=O)O2)c2c(c(C)c1OC(=O)c1cccnc1)CC(C)(C)O2` (relative stereo) [Compound No. 31, trans-(±)-6-[2,3-dihydro-5-(pyridine-3-carboxy)-2,2,4,6-tetramethylbenzo[b]furan-7-yl]ethyl-4-hydroxytetrahydropyran-2-one], the “Inhibiting Activity (Inhibiting Ratio of Biosynthesis of Cholesterol), relative value when the value of compactin is 100” value (HMG Co-A Reductase) was 90.

For `Cc1c(CC[C@@H]2C[C@@H](O)CC(=O)O2)c2c(c(C)c1OCc1ccccc1)CCC(C)(C)O2` (relative stereo) [Compound No. 45], the “Inhibiting Activity (Inhibiting Ratio of Biosynthesis of Cholesterol), relative value when the value of compactin is 100” value (HMG Co-A Reductase) was 39.

`Cc1c(O)c(C)c2c(c1CC[C@@H]1C[C@@H](O)CC(=O)O1)OC(C)(C)CC2` (relative stereo) [Compound No. 46, trans-(±)-6-[(6-hydroxy-2,2,5,7-tetramethyl)chroman-8-yl]ethyl-4-hydroxytetrahydropyran-2-one] was tested, and the “Inhibiting Activity (Inhibiting Ratio of Biosynthesis of Cholesterol), relative value when the value of compactin is 100” value (HMG Co-A Reductase) was 28 and the “Anti-oxidation Function” value (rat brain homogenate) was 106.

With `CC(=O)Oc1c(C)c(CC[C@@H]2C[C@@H](O)CC(=O)O2)c2c(c1C)CCC(C)(C)O2` (relative stereo) [Compound No. 50, trans-(±)-6-[(6-acetoxy-2,2,5,7-tetramethyl)chroman-8-yl]ethyl-4-hydroxytetrahydropyran-2-one] the “Inhibiting Activity (Inhibiting Ratio of Biosynthesis of Cholesterol), relative value when the value of compactin is 100” value (HMG Co-A Reductase) was 12 and the “Anti-oxidation Function” value (rat brain homogenate) was 106.

For `Cc1c(CC[C@@H]2C[C@@H](O)CC(=O)O2)c2c(c(C)c1OC(=O)c1cccnc1)CCC(C)(C)O2` (relative stereo) [Compound No. 52, trans-(±)-6-[[6-pyridine-3-carboxy)-2,2,5,7-tetramethyl]-chroman-8-yl]ethyl-4-hydroxytetrahydropyran-2-one], the “Inhibiting Activity (Inhibiting Ratio of Biosynthesis of Cholesterol), relative value when the value of compactin is 100” value (HMG Co-A Reductase) was 18 and the “Anti-oxidation Function” value (rat brain homogenate) was 19.

With `Cc1c2c(c(CC[C@@H]3C[C@@H](O)CC(=O)O3)c(C(C)C)c1OC(=O)c1cccnc1)OC(C)(C)C2` (relative stereo) [Compound No. 156, trans-(±)-6-[2,3-dihydro-6-(2-propyl)-5-(pyridine-3-carboxy)-2,2,4-trimethylbenzo[b]furan-7-yl]ethyl-4-hydroxytetrahydropyran-2-one] the “Inhibiting Activity (Inhibiting Ratio of Biosynthesis of Cholesterol), relative value when the value of compactin is 100” value (HMG Co-A Reductase) was 180.

Vitamin E [reference compound] was tested, and the “Anti-oxidation Function” value (rat brain homogenate) was 100.
